In patent publication US8304447B2, “2-acylaminopropoanol-type glucosylceramide synthase inhibitors” (Genzyme Corporation, priority 2007, dated 2012):
pIC50: −log10 of the molar value.

tested on: GM3; assay: GM3 Elisa assay; format: cell-based; details: Table 3 (IC 50 Values); B16-FO cells; read-out: IC50_uM_Mean
Outline: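 Murine B16-FO melanoma cells attached 6 h on collagen, then exposed to compounds for 2 days at 37 °C. After formaldehyde fixation, cell-surface GM3 (NeuAc) was detected by anti-GM3 IgM and peroxidase anti-mouse IgM with Quantablu fluorescence (Ex 325/Em 420).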

Row | SMILES | pIC50
1 | COc1ccc(C(=O)CCCCCC(=O)N[C@@H](Cc2ccccc2)CN2CCCC2)cc1 [Compound 541] | 5.00 to 5.52
2 | COc1ccc(OCCC(=O)N[C@H](CN2CCC[C@H]2C(F)(F)F)[C@H](O)c2ccc3c(c2)OCCO3)cc1 [Compound 542] | 5.00 to 5.52
3 | CCCCCCCC(=O)N[C@H](CN1C[C@@H]2CC[C@H]1C2)[C@H](O)c1ccc2c(c1)OCCO2 [Compound 545] | 6.00 to 7.00
4 | CCCCCCCC(=O)N[C@H](CN1CCC[C@@H]1C(F)(F)F)[C@H](O)c1ccc2c(c1)OCCO2 [Compound 546] | 5.00 to 5.52
5 | CCCCCCCC(=O)N[C@H](CN1[C@H](C)CC[C@H]1C)[C@H](O)c1ccc2c(c1)OCCO2 [Compound 549] | 5.00 to 5.52
6 | COc1ccc(OCCC(=O)N[C@H](CN2[C@H](C)CC[C@H]2C)[C@H](O)c2ccc3c(c2)OCCO3)cc1 [Compound 550] | 5.00 to 5.52
7 | COc1ccc(OCCC(=O)N[C@H](CN2CCCC2(C)C)[C@H](O)c2ccc3c(c2)OCCO3)cc1 [Compound 551] | 5.00 to 5.52
8 | CCCCCCCC(=O)N[C@H](CN1CCCC1(C)C)[C@H](O)c1ccc2c(c1)OCCO2 [Compound 553] | 5.00 to 5.52
9 | O=C(CCCCOC1CCOCC1)N[C@H](CN1CCCC1)[C@H](O)c1ccc2c(c1)OCCO2 [Compound 554] | 5.00 to 5.52
10 | O=C(CCCCCC1CCOCC1)N[C@H](CN1CCCC1)[C@H](O)c1ccc2c(c1)OCCO2 [Compound 559] | 6.00 to 7.00
11 | O=C(CCCCS(=O)(=O)C12CC3CC(CC(C3)C1)C2)N[C@H](CN1CCCC1)[C@H](O)c1ccc2c(c1)OCCO2 [Compound 560] | 6.00 to 7.00
12 | O=C(CCCCCS(=O)(=O)C1CCCCC1)N[C@H](CN1CCCC1)[C@H](O)c1ccc2c(c1)OCCO2 [Compound 562] | 6.00 to 7.00
13 | CCCCCCCC(=O)N[C@H](Cc1ncc[nH]1)[C@H](O)c1ccc2c(c1)OCCO2 [Compound 563] | 5.00 to 5.52
14 | O=C(CCCOc1ccc(F)cc1)N[C@H](CN1CCCC1)[C@H](O)c1ccc2c(c1)OCCO2 [Compound 566] | ≥ 7.00
15 | O=C(CCOc1ccc(F)cc1)N[C@H](CN1CC[C@@H](F)C1)[C@H](O)c1ccc2c(c1)OCCO2 [Compound 568] | 6.00 to 7.00
16 | Cc1nccn1C[C@@H](NC(=O)CCCCCC(=O)c1ccc(F)cc1)C(O)c1ccc2c(c1)OCCO2 (stereo partly drawn) [Compound 569] | 5.00 to 5.52
17 | CCCCCCCC(=O)N[C@H](Cn1ccnc1C)[C@H](O)c1ccc2c(c1)OCCO2 [Compound 571] | 5.00 to 5.52
18 | O=C(CCCCCC1CCOCC1)N[C@H](CN1CC[C@@H](F)C1)C(O)c1cccc(OCc2ccccc2)c1 (stereo partly drawn) [Compound 574] | 6.00 to 7.00
19 | O=C(CCCCOC1CCOCC1)N[C@H](CN1CC[C@@H](F)C1)[C@H](O)c1ccc(OCc2ccccc2)cc1 [Compound 575] | 6.00 to 7.00
20 | O=C(CCCCC(=O)C1CCOCC1)N[C@H](CN1CC[C@@H](F)C1)[C@H](O)c1ccc(OCc2ccccc2)cc1 [Compound 576] | 6.00 to 7.00
21 | O=C(CCCS(=O)(=O)C1CCCCC1)N[C@H](CN1CC[C@@H](F)C1)[C@H](O)c1ccc(OCc2ccccc2)cc1 [Compound 577] | 6.00 to 7.00

Row | SMILES | pIC50
22 | O=C(CCCCCS(=O)(=O)C1CCCCC1)N[C@H](CN1CC[C@@H](F)C1)[C@H](O)c1ccc(OCc2ccccc2)cc1 [Compound 578] | ≥ 7.00
23 | O=C(CCCCC1CCOCC1)N[C@H](CN1CCCC1)[C@H](O)c1ccc2c(c1)OCCO2 [Compound 581] | 6.00 to 7.00
24 | O=C(CCC1CCOCC1)N[C@H](CN1CCCC1)[C@H](O)c1ccc2c(c1)OCCO2 [Compound 582] | 5.00 to 5.52
25 | COc1ccc(C(=O)CCCCCC(=O)N[C@H](CN2CC[C@H](OC)C2)[C@H](O)c2ccc3c(c2)OCCO3)cc1 [Compound 583] | 5.00 to 5.52
26 | CCCCOc1ccc([C@@H](O)[C@@H](CN2CC[C@@H](F)C2)NC(=O)CCCCC(=O)C2CCCCC2)cc1 [Compound 585] | 6.00 to 7.00
27 | CCCCOc1ccc([C@@H](O)[C@@H](CN2CC[C@H](O)C2)NC(=O)CCCCCCCOC)cc1 [Compound 586] | ≥ 7.00
28 | CCCCOc1ccc([C@@H](O)[C@@H](CN2CC[C@H](O)C2)NC(=O)CCCCC(=O)C2CCCCC2)cc1 [Compound 587] | 6.00 to 7.00
29 | CCCCCCCC(=O)N[C@H](CN1CCC1)[C@H](O)c1ccc2c(c1)OCCO2 [Compound 594] | 5.52 to 6.00
30 | CCCCCCCC(=O)N[C@H](CN1C(C)CCCC1C)[C@H](O)c1ccc2c(c1)OCCO2 (stereo partly drawn) [Compound 595] | 5.00 to 5.52
31 | CCCCCCCC(=O)N[C@H](CC1CC(OCCC)C1)[C@H](O)c1ccc2c(c1)OCCO2 (stereo partly drawn) [Compound 596] | 5.00 to 5.52
32 | CCCOC1CC(C[C@@H](NC(=O)CCOc2ccc(OC)cc2)[C@H](O)c2ccc3c(c2)OCCO3)C1 (stereo partly drawn) [Compound 597] | 5.00 to 5.52
33 | COc1ccc(C(=O)CCCCCC(=O)N[C@H](CN2CC(O)C2)[C@H](O)c2ccc3c(c2)OCCO3)cc1 [Compound 600] | 5.52 to 6.00
34 | COc1ccc(C(=O)CCCCCC(=O)N[C@H](CN2C(C)CCCC2C)[C@H](O)c2ccc3c(c2)OCCO3)cc1 (stereo partly drawn) [Compound 602] | 5.00 to 5.52
35 | COc1ccc(C(=O)CCCCCC(=O)N[C@H](CN2CCC2)[C@H](O)c2ccc3c(c2)OCCO3)cc1 [Compound 603] | 6.00 to 7.00
36 | CCCOC1CN(C[C@@H](NC(=O)CCCCCC(=O)c2ccc(OC)cc2)[C@H](O)c2ccc3c(c2)OCCO3)C1 [Compound 604] | 5.00 to 5.52
37 | CCCCCCCC(=O)N[C@H](CN1CCCCC1C)[C@H](O)c1ccc2c(c1)OCCO2 (stereo partly drawn) [Compound 605] | 5.00 to 5.52
38 | COc1ccc(C(=O)CCCCCC(=O)N[C@H](CN2CCCCC2C)[C@H](O)c2ccc3c(c2)OCCO3)cc1 (stereo partly drawn) [Compound 607] | 5.52 to 6.00
39 | COc1ccc(OCCC(=O)N[C@H](CN2CCCC(C)C2)[C@H](O)c2ccc3c(c2)OCCO3)cc1 (stereo partly drawn) [Compound 608] | 5.00 to 5.52
40 | COc1ccc(C(=O)CCCCCC(=O)N[C@H](CN2CCCC(C)C2)[C@H](O)c2ccc3c(c2)OCCO3)cc1 (stereo partly drawn) [Compound 609] | 6.00 to 7.00
41 | COc1ccc(OCCC(=O)N[C@H](CN2CCC(C)CC2)[C@H](O)c2ccc3c(c2)OCCO3)cc1 [Compound 610] | 5.00 to 5.52

The remaining lines, values ahead:

Row | pIC50 | SMILES
42 | 5.00 to 5.52 | CCCCCCCC(=O)N[C@H](CN1CCC[C@H]1C(F)(F)F)[C@H](O)c1ccc2c(c1)OCCO2 [Compound 543]
43 | 6.00 to 7.00 | COc1ccc(OCCC(=O)N[C@H](CN2C[C@@H]3CC[C@H]2C3)[C@H](O)c2ccc3c(c2)OCCO3)cc1 [Compound 544]
44 | ≥ 7.00 | COc1ccc(C(=O)CCCCCC(=O)N[C@H](CN2C[C@@H]3CC[C@H]2C3)[C@H](O)c2ccc3c(c2)OCCO3)cc1 [Compound 547]
45 | 5.52 to 6.00 | COc1ccc(C(=O)CCCCCC(=O)N[C@H](CN2[C@H](C)CC[C@H]2C)[C@H](O)c2ccc3c(c2)OCCO3)cc1 [Compound 548]
46 | 5.52 to 6.00 | COc1ccc(C(=O)CCCCCC(=O)N[C@H](CN2CCCC2(C)C)[C@H](O)c2ccc3c(c2)OCCO3)cc1 [Compound 552]
47 | 6.00 to 7.00 | COc1ccc(S(=O)(=O)CCCCCC(=O)N[C@H](CN2CCCC2)[C@H](O)c2ccc3c(c2)OCCO3)cc1 [Compound 555]
48 | 5.00 to 5.52 | O=C(CCCCC(=O)C1CCOCC1)N[C@H](CN1CCCC1)[C@H](O)c1ccc2c(c1)OCCO2 [Compound 556]
49 | 5.00 to 5.52 | O=C(CCCCS(=O)(=O)C1CCCCC1)N[C@H](CN1CCCC1)[C@H](O)c1ccc2c(c1)OCCO2 [Compound 557]
50 | 5.52 to 6.00 | O=C(CCCCC(=O)C1CCC(F)(F)CC1)N[C@H](CN1CCCC1)[C@H](O)c1ccc2c(c1)OCCO2 [Compound 558]
51 | 5.00 to 5.52 | O=C(CCCS(=O)(=O)C1CCCCC1)N[C@H](CN1CCCC1)[C@H](O)c1ccc2c(c1)OCCO2 [Compound 561]
52 | 6.00 to 7.00 | COc1ccc(S(=O)(=O)CCCCCC(=O)N[C@H](CN2CC[C@@H](F)C2)[C@H](O)c2ccc3c(c2)OCCO3)cc1 [Compound 564]
53 | ≥ 7.00 | O=C(CCCCCC(=O)c1ccc(F)cc1)N[C@H](CN1CC[C@@H](F)C1)[C@H](O)c1ccc2c(c1)OCCO2 [Compound 565]
54 | 6.00 to 7.00 | O=C(CCCOc1ccc(F)cc1)N[C@H](CN1CC[C@@H](F)C1)[C@H](O)c1ccc2c(c1)OCCO2 [Compound 567]
55 | 5.00 to 5.52 | Cc1nccn1C[C@@H](NC(=O)CCCOc1ccc(F)cc1)[C@H](O)c1ccc2c(c1)OCCO2 [Compound 570]
56 | 6.00 to 7.00 | O=C(CCCCS(=O)(=O)C1CCCCC1)N[C@H](CN1CC[C@@H](F)C1)[C@H](O)c1ccc(OCc2ccccc2)cc1 [Compound 572]
57 | 6.00 to 7.00 | O=C(CCCCC(=O)C1CCC(F)(F)CC1)N[C@H](CN1CC[C@@H](F)C1)[C@H](O)c1ccc(OCc2ccccc2)cc1 [Compound 573]
58 | 5.00 to 5.52 | O=C(N[C@H](CN1CCCC1)[C@H](O)c1ccc2c(c1)OCCO2)C1CCOCC1 [Compound 579]
59 | 5.00 to 5.52 | O=C(CC1CCOCC1)N[C@H](CN1CCCC1)[C@H](O)c1ccc2c(c1)OCCO2 [Compound 580]
60 | 6.00 to 7.00 | CCCCOc1ccc(C(O)[C@@H](CN2CC[C@@H](F)C2)NC(=O)CCCCCCCOC)cc1 (stereo partly drawn) [Compound 584]
61 | 5.00 to 5.52 | CCCCOc1ccc(C(CN2CCCC2)NC(=O)CCCCC(=O)c2ccc(OC)cc2)cc1 (stereo not drawn) [Compound 588]
62 | 5.52 to 6.00 | CCCCOc1ccc(CC(CN2CCCC2)NC(=O)CCCCC(=O)c2ccc(OC)cc2)cc1 (stereo not drawn) [Compound 589]
63 | 5.00 to 5.52 | CCCCCCC1=CC([C@H](CN2CCCC2)[C@H](O)c2ccc3c(c2)OCCO3)NN1 (stereo partly drawn) [Compound 591]
64 | ≥ 7.00 | CCCCOc1ccc([C@@H](O)C(CN2CC[C@H](O)C2)NC(=O)CCCCCCCOC)cc1 (stereo partly drawn) [Compound 592]
65 | 6.00 to 7.00 | CCCCOc1ccc([C@@H](O)[C@@H](CN2CC[C@H](O)C2)NC(=O)CCCCCOC2CCC2)cc1 [Compound 593]
66 | 5.00 to 5.52 | COC1CCC(OCCC(=O)N[C@H](CN2C(C)CCCC2C)[C@@H](O)c2ccc3c(c2)OCCO3)CC1 (stereo partly drawn) [Compound 598]
67 | 5.52 to 6.00 | COc1ccc(OCCC(=O)N[C@H](CN2CCC2)[C@H](O)c2ccc3c(c2)OCCO3)cc1 [Compound 599]
68 | 5.00 to 5.52 | COc1ccc(OCCC(=O)N[C@H](CN2CC(O)C2)[C@H](O)c2ccc3c(c2)OCCO3)cc1 [Compound 601]
69 | 5.00 to 5.52 | COc1ccc(OCCC(=O)N[C@H](CN2CCCCC2C)[C@H](O)c2ccc3c(c2)OCCO3)cc1 (stereo partly drawn) [Compound 606]
